The source of these data is ChEMBL document CHEMBL1159057, “Novel anilinophthalimide derivatives as potential probes for beta-amyloid plaque in the brain” (Bioorg Med Chem, 2010).

Calls of active or inactive are those of the source. No cut-off for these calls is given here.

The target of data set [1] is T1, Amyloid-beta precursor protein (Homo sapiens, UniProt P05067). The data set can be described thus: Displacement of [125I-N-Methyl-4-(4-bromoanilino)phthalimide from beta-amyloid plaques isolated from Alzheimer's disease patient brain. (Loss of bound radioactivity is the signal in a displacement assay; it reports binding, not function.)
The target of data set [2] is T1, Amyloid-beta precursor protein. The data set can be described thus: Binding affinity to beta-amyloid plaques isolated from Alzheimer's disease patient brain at 50 uM by fluorescence micrography.
Data set [3] is described as follows: Binding affinity to beta-amyloid plaques.
The test system of data set [4] is Blood. The data set can be described thus: Biodistribution in Kunming mouse blood at 2 uCi, iv after 2 mins. The format is ADME, organism-based. To be noted: in vivo.
Data set [5] deals with Blood. The data set can be described thus: Biodistribution in Kunming mouse blood at 2 uCi, iv after 10 mins. The format is ADME, organism-based. The following applies: in vivo.
The test system of data set [6] is Blood. The data set can be described thus: Biodistribution in Kunming mouse blood at 2 uCi, iv after 30 mins. The format is ADME, organism-based. The following applies: in vivo, 0.5 h.
Data set [7] relates to Blood. The data set can be described thus: Biodistribution in Kunming mouse blood at 2 uCi, iv after 60 mins. The following applies: in vivo, 1 h. The format is ADME, organism-based.
Data set [8] deals with Heart. As to the kind of experiment: Biodistribution in Kunming mouse heart at 2 uCi, iv after 2 mins. The following applies: in vivo. The data set is classed as ADME, organism-based.
Data set [9] has as its system Heart. The data set can be described thus: Biodistribution in Kunming mouse heart at 2 uCi, iv after 10 mins. The format is ADME, organism-based. The following applies: in vivo.
Data set [10] concerns Heart. As to the kind of experiment: Biodistribution in Kunming mouse heart at 2 uCi, iv after 30 mins. The format is ADME, organism-based. To be noted: in vivo, 0.5 h.
For data set [11], the system named is Heart. The data set can be described thus: Biodistribution in Kunming mouse heart at 2 uCi, iv after 60 mins. The data set is classed as ADME, organism-based. To be noted: in vivo, 1 h.
Data set [12] concerns Lung. As to the kind of experiment: Biodistribution in Kunming mouse lung at 2 uCi, iv after 2 mins. The data set is classed as ADME, organism-based. The following applies: in vivo.
Data set [13] has as its system Lung. As to the kind of experiment: Biodistribution in Kunming mouse lung at 2 uCi, iv after 10 mins. To be noted: in vivo. The data set is classed as ADME, organism-based.
In data set [14] the test system is Lung. The data set can be described thus: Biodistribution in Kunming mouse lung at 2 uCi, iv after 30 mins. The format is ADME, organism-based. The following applies: in vivo, 0.5 h.
For data set [15], the system named is Lung. The data set can be described thus: Biodistribution in Kunming mouse lung at 2 uCi, iv after 60 mins. The format is ADME, organism-based. To be noted: in vivo, 1 h.
For data set [16], the system named is Kidney. As to the kind of experiment: Biodistribution in Kunming mouse kidney at 2 uCi, iv after 2 mins. The format is ADME, organism-based. To be noted: in vivo.
In data set [17] the test system is Kidney. As to the kind of experiment: Biodistribution in Kunming mouse kidney at 2 uCi, iv after 10 mins. The data set is classed as ADME, organism-based. To be noted: in vivo.
For data set [18], the system named is Kidney. As to the kind of experiment: Biodistribution in Kunming mouse kidney at 2 uCi, iv after 30 mins. The data set is classed as ADME, organism-based. The following applies: in vivo, 0.5 h.
In data set [19] the test system is Kidney. The data set can be described thus: Biodistribution in Kunming mouse kidney at 2 uCi, iv after 60 mins. The data set is classed as ADME, organism-based. To be noted: in vivo, 1 h.
Data set [20] has as its system Spleen. As to the kind of experiment: Biodistribution in Kunming mouse spleen at 2 uCi, iv after 2 mins. The format is ADME, organism-based. To be noted: in vivo.
For data set [21], the system named is Spleen. The data set can be described thus: Biodistribution in Kunming mouse spleen at 2 uCi, iv after 10 mins. The following applies: in vivo. The data set is classed as ADME, organism-based.
Data set [22] has as its system Spleen. As to the kind of experiment: Biodistribution in Kunming mouse spleen at 2 uCi, iv after 30 mins. The format is ADME, organism-based. The following applies: in vivo, 0.5 h.
For data set [23], the system named is Spleen. The data set can be described thus: Biodistribution in Kunming mouse spleen at 2 uCi, iv after 60 mins. The format is ADME, organism-based. To be noted: in vivo, 1 h.
The test system of data set [24] is Liver. The data set can be described thus: Biodistribution in Kunming mouse liver at 2 uCi, iv after 2 mins. The data set is classed as ADME, organism-based. The following applies: in vivo.
Data set [25] relates to Liver. The data set can be described thus: Biodistribution in Kunming mouse liver at 2 uCi, iv after 10 mins. The following applies: in vivo. The format is ADME, organism-based.
The subject of data set [26] is Liver. The data set can be described thus: Biodistribution in Kunming mouse liver at 2 uCi, iv after 30 mins. The data set is classed as ADME, organism-based. To be noted: in vivo, 0.5 h.
For data set [27], the system named is Liver. As to the kind of experiment: Biodistribution in Kunming mouse liver at 2 uCi, iv after 60 mins. The format is ADME, organism-based. The following applies: in vivo, 1 h.
For data set [28], the system named is Brain. As to the kind of experiment: Biodistribution in Kunming mouse brain at 2 uCi, iv after 2 mins. The format is ADME, organism-based. To be noted: in vivo.
Data set [29] relates to Brain. As to the kind of experiment: Biodistribution in Kunming mouse brain at 2 uCi, iv after 10 mins. The data set is classed as ADME, organism-based. The following applies: in vivo.
In data set [30] the test system is Brain. The data set can be described thus: Biodistribution in Kunming mouse brain at 2 uCi, iv after 30 mins. The data set is classed as ADME, organism-based. The following applies: in vivo, 0.5 h.
In data set [31] the test system is Brain. As to the kind of experiment: Biodistribution in Kunming mouse brain at 2 uCi, iv after 60 mins. The format is ADME, organism-based. To be noted: in vivo, 1 h.
Data set [32] in a line: Partition coefficient, log P at pH 7.4 phosphate buffer. The format is physicochemical.

T1 sequence (P05067 whole entry): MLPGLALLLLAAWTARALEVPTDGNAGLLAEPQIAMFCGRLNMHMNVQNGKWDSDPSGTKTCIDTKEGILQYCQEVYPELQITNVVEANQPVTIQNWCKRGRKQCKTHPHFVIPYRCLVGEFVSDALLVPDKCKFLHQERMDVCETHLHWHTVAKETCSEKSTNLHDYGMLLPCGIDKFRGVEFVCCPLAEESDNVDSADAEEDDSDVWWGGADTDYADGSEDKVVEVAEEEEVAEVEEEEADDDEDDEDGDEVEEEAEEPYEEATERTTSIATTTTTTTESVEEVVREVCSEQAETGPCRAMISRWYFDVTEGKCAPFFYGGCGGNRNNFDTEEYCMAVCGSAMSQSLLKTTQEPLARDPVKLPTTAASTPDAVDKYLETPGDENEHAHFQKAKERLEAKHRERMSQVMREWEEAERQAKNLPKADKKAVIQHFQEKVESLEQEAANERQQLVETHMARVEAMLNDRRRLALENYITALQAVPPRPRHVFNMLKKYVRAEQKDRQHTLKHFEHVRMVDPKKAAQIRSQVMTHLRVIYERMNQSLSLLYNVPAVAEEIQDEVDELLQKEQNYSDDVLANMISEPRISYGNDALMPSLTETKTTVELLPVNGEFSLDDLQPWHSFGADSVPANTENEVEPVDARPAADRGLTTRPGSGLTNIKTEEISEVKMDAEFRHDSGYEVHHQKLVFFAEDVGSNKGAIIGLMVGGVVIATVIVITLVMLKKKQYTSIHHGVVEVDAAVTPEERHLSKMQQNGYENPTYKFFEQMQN

Regarding `CN1C(=O)c2ccc(Nc3ccc(Br)cc3)cc2C1=O`, the inhibition constant Ki (commonly a measure of affinity in units of concentration, obtained from inhibition or displacement) in data set [1] is 3.8 nM. In addition, the result in data set [2] was Active.
Molecule `CN1C(=O)c2cc(Nc3ccccc3)c(Nc3ccccc3)cc2C1=O` displayed an inhibition constant Ki in [1] greater than 1000 nM.
On to `[11CH3]Nc1ccc(-c2nc3ccc(O)cc3s2)cc1` [PITTSBURGH COMPOUND B], for which the Ki in [3] is 4.3 nM.
`CN1C(=O)c2ccc(Nc3ccc(O)cc3)cc2C1=O` had a Ki in data set [1] of 19.7 nM. That is a double-digit nanomolar value.
In data set [3], `CN(C)c1ccc(-c2cn3cc([123I])ccc3n2)cc1` returned a Ki of […].
Regarding `CN1C(=O)c2ccc(Nc3ccc([125I])cc3)cc2C1=O`, the dissociation constant (Kd) (commonly a measure of binding affinity in units of concentration) in data set [1] was determined as 0.21 nM. Moreover, the Drug uptake is 2.47 % ID/g in the data set with Blood [4]; 2.74 % ID/g in the data set on Blood [5]; 2.69 % ID/g with Blood [6]; 2.78 % ID/g with Blood [7]; 7.4 % ID/g in the data set on Heart [8]; 3.41 % ID/g in the data set on Heart [9]. For the same molecule, the Drug uptake is 2.83 % ID/g in the data set with Heart [10]; 2.24 % ID/g with Heart [11]; 6.77 % ID/g with Lung [12]; 6.35 % ID/g with Lung [13]; 3.47 % ID/g in the data set with Lung [14]; 2.82 % ID/g with Lung [15]. Further, the Drug uptake in the data set on Kidney [16] is reported as 9.81 % ID/g; in the data set with Kidney [17], 6.55 % ID/g; in the data set with Kidney [18] it was 3.59 % ID/g; in the data set with Kidney [19] it was 2.68 % ID/g; in the data set with Spleen [20], 5.64 % ID/g; in the data set on Spleen [21], 6.87 % ID/g. The Drug uptake with Spleen [22] is 3.7 % ID/g; in the data set on Spleen [23] it was 2.92 % ID/g; in the data set on Liver [24] it was 11.98 % ID/g; in the data set with Liver [25] it was 14.38 % ID/g; with Liver [26], 5.84 % ID/g; in the data set with Liver [27], 3.37 % ID/g. Also, the Drug uptake is reported as 5.16 % ID/g in the data set on Brain [28], 3.41 % ID/g with Brain [29], 1.16 % ID/g with Brain [30] and 0.59 % ID/g in the data set with Brain [31]. In addition, the logD (in general, the decadic logarithm of the distribution of all forms, ionised or not, between an organic phase and buffer at a given pH) in [32] stood at 2.16.
In the case of `COc1ccc2cc([C@H](C)C(=O)O)ccc2c1` [NAPROXEN], the inhibition constant (Ki) in data set [3] stood at 5.7 nM. In other words, the single-digit nanomolar range.
`Cc1ccc(Nc2ccc3c(c2)C(=O)N(C)C3=O)cc1`: in [1], the Ki amounted to 4.1 nM. For the same molecule, the result in [2] was Active.
On to `CC(=C(C#N)C#N)c1ccc2cc(N(C)CC[18F])ccc2c1`, for which affinity in [3] was put at a Ki of 2.7 nM.
Molecule `CN1C(=O)c2ccc(Nc3ccccc3)cc2C1=O` yielded a Ki in [1] of 7.6 nM.
As for `COc1ccc(Nc2ccc3c(c2)C(=O)N(C)C3=O)cc1`, the affinity in data set [1] corresponds to a Ki of 16.3 nM.
In [1], `CN1C(=O)c2ccc(Nc3ccc(I)cc3)cc2C1=O` yielded an inhibition constant (Ki) of 0.9 nM. The result in data set [2] was Active.
The molecule `Nc1c(/N=N/c2ccc(-c3ccc(/N=N/c4cc(S(=O)(=O)O)c5ccccc5c4N)cc3)cc2)cc(S(=O)(=O)O)c2ccccc12` [CONGO RED] registered a Ki in data set [1] greater than 1000 nM.
Regarding `O=C1NC(=O)c2cc(Nc3ccccc3)c(Nc3ccccc3)cc21` [DAPH], the inhibitory constant (Ki) in [1] was greater than 1000 nM.
